Patent US20230271959A1, “HETEROCYCLIC COMPOUND AS BCL-2 INHIBITOR” (Beijing Innocare Pharma Tech Co., Ltd., priority 2020, published 2023)

Assays:
[1] = tested on: RS4;11 cells (acute lymphoblastic leukemia cells); test: RS4;11 cell proliferation, CellTilter-Glo luminescence cell viability assay; type: cell-based; settings: CTG readout after 48 hours
Procedure: The effects of the compounds of the present invention on the proliferation of RS4;11 cells were evaluated using a luminescence cell viability assay.
A CellTilter-Glo (CTG) Assay Kit is used to detect ATP, a key indicator of the metabolism of living cells, through a unique, highly sensitive and stable luciferase. The luminescent signal generated in the assay is proportional to the number of the viable cells in the medium, therefore the cell proliferation of RS4;11 can be determined.
CellTilter-Glo reagent (Promega, G7572) is composed of CellTilter-Glo lyophilized powder and CellTilter-Glo buffer, and the lyophilized powder can be dissolved in the buffer for use.
RS4;11 cells (ATCC, CRL-1873) were cultured in RPMI1640 complete medium (Thermofisher, 72400-047) containing 10% FBS (GBICO, 10099-141) and 100 units/ml penicillin-streptomycin solution (Thermofisher, 15140122)), when the cells covered 80-90% in the culture vessel, they were digested and dispersed with 0.25% trypsin (containing EDTA) (Thermofisher, 25200056) and then planted in a white 384-well plate (Thermofisher, 164610), and then the 384-well plate was incubated overnight in a 37° C., 5% CO2 incubator. Compounds were dissolved in 100% DMSO and diluted to […], followed by 4-fold serial dilutions with DMSO to a minimum concentration of 0.061 μM, and each concentration point was further diluted 50-fold with FBS-free RPMI1640 medium. If the IC50 of the compound is very low, the initial concentration of the compound can be reduced. After overnight, 3 μL of the compound diluted in the medium was added to each well, and the mixture was gently centrifuged to mix. The group without cells was used as a negative control (100% inhibition), and the group with 0.2% DMSO was used as a positive control (0% inhibition). The 384-well plate was placed in a 37° C., 5% CO2 incubator for further cultivation. After 48 hours, the plate was taken out and equilibrated to room temperature. 15 μl of CTG reagent was added to each well, the plate was shaken gently for 3 minutes to make sure that the cell lysis was carried out thoroughly, then the plate was kept for 10 minutes to stabilize the luminescence signal, then the luminescence signal was read by EnVision (Perkin Elmer).
The inhibition percentage of the compounds to RS4;11 cell proliferation can be calculated using the following equation:
Inhibition Percentage=100−100*(signal compound-signal negative control)/(signal positive control-signal negative control)
(§1) The IC50 of the compound was calculated from 8 concentration points using XLfit (ID Business Solutions Ltd., UK) software by the following equation:
Y=Bottom+(Top−Bottom)/(1+10^((Log IC50−X)*slope factor))
wherein, Y is the inhibition percentage, Bottom is the bottom plateau of the curve (the bottom plateau value of the S-shaped curve), Top is the top plateau of the curve (the top plateau value of the S-shaped curve), and X is the logarithm of the concentration of the compound to be tested.

[2] = biological target: T1, human recombinant Bcl-XL protein (Homo sapiens, UniProt Q07817); test: Fluorescence polarization test for inhibition of BCL-XL binding to FITC-BIM; settings: 10 nM BCL-XL, 10 nM FITC-BIM, read-out: FP BCL-XL IC50
T1 construct: purchased Beijing Yiqiao Shenzhou Biotechnology Co., Ltd. 10455-H0SE
T1 sequence (Q07817 whole entry): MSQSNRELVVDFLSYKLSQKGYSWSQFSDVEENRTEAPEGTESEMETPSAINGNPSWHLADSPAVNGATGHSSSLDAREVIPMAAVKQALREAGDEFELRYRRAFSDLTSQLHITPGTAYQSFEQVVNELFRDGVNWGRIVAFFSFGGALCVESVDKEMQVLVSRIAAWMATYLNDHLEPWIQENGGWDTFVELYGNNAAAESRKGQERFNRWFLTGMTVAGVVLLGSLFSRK
Procedure: Fluorescence polarization assay was used to evaluate the effect of the compounds of the present invention on the biological activity of BCL-XL.
The effects of the compounds on the biological activity of BCL-XL were evaluated by detecting the effects of the compounds on the binding activity of BCL-XL to BIM using an affinity assay method based on the principle of fluorescence polarization. The reaction buffer contains the following components: PBS (pH 7.4, 3 mM Na2HPO4, 155 mM NaCl, 1 mM KH2PO4), 1 mM DTT; human recombinant Bcl-XL protein (Item No. 10455-H0SE) (purchased from Beijing Yiqiao Shenzhou Biotechnology Co., Ltd.) was diluted to 10 nM with reaction buffer; FITC-labeled BIM polypeptide (purchased from Nanjing GenScript Biotechnology Co., Ltd) was diluted to 10 nM with reaction buffer.
The compounds were dissolved in 100% DMSO and diluted to 1 μM, followed by 4-fold serial dilutions in DMSO to a minimum concentration of 0.061 nM, each concentration point was further diluted 50-fold with reaction buffer.
3 μL of solution containing the compound and 12 μL of solution containing BCL-XL were added to the black 384-well assay plate, mixed well, and incubated at room temperature for 15 minutes. Subsequently, 15 μL of FITC-BIM solution was added, and the reaction mixture was incubated at room temperature for 30 minutes in the dark place, and then the fluorescence polarization was detected immediately on an Envision multi-plate reader (Perkin Elmer), with 480 nm as the excitation wavelength and 535 nm as the emission wavelength. In this experiment, the group without BCL-XL protein was used as a negative control (100% inhibition), and the group with BCL-XL protein but without the compound was added as a positive control (0% inhibition). The inhibition percentage of the compound to the affinity of BCL-XL can be calculated using the following equation: […]
as §1
(§2) Y=Bottom+(Top−Bottom)/(1+10^((log IC50−X)*slope factor))
(§3) where Y is the inhibition percentage, X is the logarithm of the concentration of the compound to be tested, Bottom is the maximum inhibition percentage, Top is the minimum inhibition percentage, and slope factor is the slope coefficient of the curve.

[3] = biological target: T2, human recombinant Bcl-2 protein (Homo sapiens, UniProt P10415); test: Fluorescence polarization test for inhibition of BCL-2 binding to FITC-BIM; settings: 5 nM BCL-2, 5 nM FITC-BIM, read-out: FP BCL-2 IC50
T2 construct: purchased Beijing Yigiao Shenzhou Biotechnology Co., Ltd. 10195-HOSE
T2 sequence (P10415 whole entry): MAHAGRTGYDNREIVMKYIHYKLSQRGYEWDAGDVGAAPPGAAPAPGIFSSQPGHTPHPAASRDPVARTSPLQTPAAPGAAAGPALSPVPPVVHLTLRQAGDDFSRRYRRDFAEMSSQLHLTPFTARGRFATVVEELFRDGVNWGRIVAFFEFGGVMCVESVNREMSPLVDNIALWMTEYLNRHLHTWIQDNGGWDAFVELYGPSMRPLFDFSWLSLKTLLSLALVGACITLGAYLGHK
Procedure: Fluorescence polarization assay was used to evaluate the effect of the compounds of the present invention on the biological activity of BCL-2.
The effects of the compounds on the biological activity of BCL-2 were evaluated by determining the effects of the compounds on the binding activity of BCL-2 to leukemia pro-apoptotic protein (BIM) using an affinity assay method based on the principle of fluorescence polarization. The reaction buffer comprises the following components: PBS (pH 7.4, 3 mM Na2HPO4, 155 mM NaCl, 1 mM KH2PO4), 1 mM DTT; human recombinant Bcl-2 protein (Item No. 10195-HOSE) (purchased from Beijing Yigiao Shenzhou Biotechnology Co., Ltd.) was diluted to 5 nM with the reaction buffer; FITC-labeled BIM polypeptide (purchased from Nanjing GenScript Biotechnology Co., Ltd.) was diluted to 5 nM with the reaction buffer.
The compounds were dissolved in 100% DMSO and diluted to 0.1, 1, 10 μM, followed by 4-fold serial dilutions with DMSO to a minimum concentration of 0.0061, 0.061, 0.61 nM, each concentration point was further diluted 50-fold with the reaction buffer.
3 μL of solution containing the compound and 12 μL of solution containing BCL-2 were added to the black 384-well assay plate, mixed well, and incubated at room temperature for 15 minutes. Subsequently, 15 μL of FITC-BIM solution was added, and the reaction mixture was incubated at room temperature for 30 minutes in dark place, and then the fluorescence polarization was detected immediately on an Envision multi-mode reader (Perkin Elmer), with 480 nm as the excitation wavelength and 535 nm as the emission wavelength. In this experiment, the group without BCL-2 protein was used as a negative control (100% inhibition), and the group with BCL-2 protein but without the compound was used as a positive control (0% inhibition). The inhibition percentage of the compound to the affinity of BCL-2 can be calculated using the following equation: […]
as §1, §2, §3

Molecule	IC50 [1] [nM]	IC50 [2] [nM]	IC50 [3] [nM]	IC50 ([1]; Homo sapiens, RS4-11) [nM]
2-((1H-Pyrrolo[2,3-b]pyridin-5-yl) oxy)-4-((R)-4-(((S)-4′-chloro-5- methyl-3,4,5,6-tetrahydro-[1,1′-biphenyl]- 2-yl)methyl)-2-methylpiperazn-1- yl)-N-((3-nitro-4-((((S)-4-(3-oxetan yl)morpholin-2-yl)methyl)amino) phenyl)sulfonyl)benzamide [Example 18]	2.4	> 1000	1.32	
C[C@@H]1CN(c2ccc(C(=O)NS(=O)(=O)c3cc(F)c(NCC4CCOCC4)c([N+](=O)[O-])c3)c(Oc3cnc4[nH]ccc4c3)c2)CCN1CC1=C(c2ccc(Cl)cc2)CC(C)(C)CC1 [Example 1, (R)-2-((1H-pyrrolo[2,3-b]pyridin-5-yl)oxy)-4-(4-((4′-chloro-5,5-dimethyl-3,4,5,6-tetrahydro-[1,1′-biphenyl]-2-yl)methyl)-3-methylpiperazin-1-yl)-N-((3-fluoro-5-nitro-4-(((tetrahydro-2H-pyran-4-yl)methyl)amino)phenyl)sulfonyl)benzamide]		> 1000	2.05	4.73
C[C@@H]1CN(c2ccc(C(=O)NS(=O)(=O)c3ccc(NCC4CCOCC4)c([N+](=O)[O-])c3)c(Oc3cnc4[nH]ccc4c3)c2)CCN1CC1=C(c2ccc(Cl)cc2)CC(C)(C)CC1 [Example 2, (R)-2-((1H-pyrrolo[2,3-b]pyridin-5-yl)oxy)-4-(4-((4′-chloro-5,5-dimethyl-3,4,5,6-tetrahydro-[1,1′-biphenyl]-2-yl)methyl)-3-methylpiperazin-1-yl)-N-((3-nitro-4-(((tetrahydro-2H-pyran-4-yl)methyl)amino)phenyl)sulfonyl) benzamide]		> 1000	2.56	11.1
C[C@@H]1CN(c2ccc(C(=O)NS(=O)(=O)c3ccc(NCC4CCN(C5COC5)CC4)c([N+](=O)[O-])c3)c(Oc3cnc4[nH]ccc4c3)c2)CCN1CC1=C(c2ccc(Cl)cc2)CC(C)(C)CC1 [Example 3, (R)-2-((1H-pyrrolo[2,3-b]pyridin-5-yl)oxy)-4-(4-((4′-chloro-5,5-dimethyl-3,4,5,6-tetrahydro-[1,1′-biphenyl]-2-yl)methyl)-3-methylpiperazin-1-yl)-N-((3--nitro-4(((1-(3-oxetanyl)piperidin-4-yl)methyl)amino)phenyl)sulfonyl) benzamide]		> 1000	3.06	6.4
C[C@@H]1CN(c2ccc(C(=O)NS(=O)(=O)c3cc(F)c(NCC4CCN(C5COC5)CC4)c([N+](=O)[O-])c3)c(Oc3cnc4[nH]ccc4c3)c2)CCN1CC1=C(c2ccc(Cl)cc2)CC(C)(C)CC1 [Example 4, (R)-2-((1H-pyrrolo[2,3-b]pyridin-5-yl)oxy)-4-(4-((4′-chloro-5,5-dimethyl-3,4,5,6-tetrahydro-[1,1′-biphenyl]-2-yl)methyl)-3-methylpiperazin-1-yl)-N-((3-fluoro-5-nitro-4-(((1-(3-oxetanyl)piperidin-4-yl)methyl)amino)phenyl)sulfonyl) benzamide]		743	2.29	5.8
C[C@@H]1CN(c2ccc(C(=O)NS(=O)(=O)c3ccc(NC[C@H]4COCCO4)c([N+](=O)[O-])c3)c(Oc3cnc4[nH]ccc4c3)c2)CCN1CC1=C(c2ccc(Cl)cc2)CC(C)(C)CC1 [Example 5, N-((4-((((S)-1,4-dioxan-2-yl)methyl)amino)-3-nitrophenyl)sulfonyl)-2-((1H-pyrrolo[2,3-b]pyridin-5-yl)oxy)-4-((R)-4-((4′-chloro-5,5-dimethyl-3,4,5,6-tetrahydro[1,1′-biphenyl]-2-yl)methyl)-3-methylpiperazin-1-yl) benzamide]		> 1000	1.54	2.75
